Data reported in PubChem BioAssay (NCI).
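Briefly, cells in 96-well plates were exposed to five compound concentrations for 48 h, and endpoints were estimated by linear interpolation. GI50 marks 50% less growth. Definition used: TGI = concentration required for complete inhibition of growth.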

Key:
Test in all cases: DTP human tumour cell line panel, 48 h
[1] = tested on: MALME-3M melanoma
[2] = tested on: SW-620 colon
[3] = tested on: U251 CNS
[4] = tested on: SK-MEL-2 melanoma
[5] = tested on: LOX IMVI melanoma
[6] = tested on: HCT-15 colon
[7] = tested on: K-562 leukemia
[8] = tested on: DU-145 prostate
[9] = tested on: MDA-MB-231 breast
[10] = tested on: HS 578T breast

Structure (SMILES)	TGI [1] [µM]	TGI [2] [µM]	TGI [3] [µM]	TGI [4] [µM]	TGI [5] [µM]	TGI [6] [µM]	TGI [7] [µM]	GI50 [1] [nM]	GI50 [8] [µM]	TGI [8] [µM]	GI50 [3] [nM]	GI50 [6] [µM]	GI50 [4] [µM]	GI50 [7] [nM]	GI50 [9] [µM]	TGI [9] [µM]	GI50 [5] [µM]	TGI [10] [µM]	GI50 [2] [µM]	GI50 [10] [µM]
C/C(CC(=O)Nc1cccc([N+](=O)[O-])c1)=N\NC(=O)C[n+]1ccccc1	> 100	> 100	> 100	> 100	> 100															
c1ccc2c3c([nH]c2c1)C1C2CCCCN2C(c2ccncc2)N1CC3 (configuration not stated)	> 100	> 100	> 100	> 100	> 100	> 100	> 100													
CCCCCCCCCCCCCCCC(=O)OCC1OC(n2cc(F)c(=O)[nH]c2=O)C(NC(=O)N(CCCl)N=O)C(O)C1O (configuration not stated)	10.1	6.58	3.74	3.3	2.24	15.1	25.6													
COC(=O)CC1CC2(C(=O)OC)c3[nH]c4ccccc4c3CCN2C1=O (configuration not stated)	> 100	> 100	> 100	> 100	> 100	> 100	> 100													
O=C(C(=O)c1cc(Br)ccc1O)c1cc(Br)ccc1O	6.12		9.94	13.3	13.6	24.1	> 100	2240	3.66	18.5	2800	4.05	3.88	2820	5.33	23	3.48			
COc1ccc2c(c1)[n+](=O)c(C(C)=O)c(C)n2[O-]	> 100	> 100	> 100	> 100	> 100	> 100	> 100													
Cc1ccc(C2=C(Cl)C(=O)C(c3ccc(C)cc3)=C(Cl)C2=O)cc1	> 100	> 100	> 100		> 100	> 100	> 100			> 100								> 100		
CCN(CC)CCOc1ccc2c(C)c(C(=O)OC)oc2c1C(=O)/C=C/c1ccc(OC)cc1		47.7	4.44	> 23.2	2.81	3.57	> 20.1		18.5	34.7	1750	1.31	9.99	1130	3.79	11.2	1.34	51.4	22.7	24.1
NC(N)=N/N=C/c1c(-c2ccncc2)nc2sc(Cl)cn12		18	3.93	> 33.7	9.55	36.3	13.3		17.5	33.3	1940	17.6	11.8	2960	1.58	3.6	3.03	41.7	7.34	18.8
COC(=O)C1CCC(=O)N1/C(C)=N/NC(=O)Nc1ccc(Cl)c(Cl)c1 (configuration not stated)		> 100	> 100	> 100	> 100	68.7	> 100													
CN(C)c1ccc(N=C2C=CC(=C(C#N)C#N)c3ccccc32)cc1	17.1	3.65	6.53	6.7	3.49	4.72	5.71			3.34						2.66				
Clc1ccc2c(NCCCN3CCN(c4nc(N5CCOCC5)nc5ccccc45)CC3)ccnc2c1	3.49	3.5	5.15	3.49	3.97		3.75	1900			2150		1.87	402			1.98	3.72	1.62	1.5
O=C(O)Cn1ccc(=O)c2cc([N+](=O)[O-])ccc21	> 100	> 100	> 100	> 100		> 100	> 100			> 100						33.5		> 100		
N#CCCN(CCC#N)c1ccc(C=Nc2ccc(F)cc2)cc1	> 100	> 100	> 100	> 32.3	> 100	> 100	> 100			> 100						> 100				
CCCCCCCCCCCCCCC(C)CCC(=O)O (configuration not stated)	> 100	> 100	> 100	> 100	> 100															
COc1cc(/C=C\c2cc(OC)c(OC)c(OC)c2)cc(NS(=O)(=O)c2ccc(Cl)cc2)c1OC		> 100	20.7	50.7	> 100	> 100	34.6		0.507	> 100	461	0.399	0.613	306	1.16	> 100	0.566	> 100	0.343	0.351
CC1=CCN(c2ccccn2)OC1c1ccccc1 (configuration not stated)	> 100	> 100	> 100	> 100	> 100	> 100	> 100													
CCOc1ccccc1NC(=O)C1=C(C)NC(C)=C(C(=O)Nc2ccccc2OCC)C1c1ccc([N+](=O)[O-])cc1	> 100	> 100	> 100	> 100		> 100														
O=C(/C=C(\[O-])c1ccccc1)CCCCCCC(=O)/C=C(\[O-])c1ccccc1.O=C(/C=C(\[O-])c1ccccc1)CCCCCCC(=O)/C=C(\[O-])c1ccccc1.O=C(/C=C(\[O-])c1ccccc1)CCCCCCC(=O)/C=C(\[O-])c1ccccc1.[Nd+3].[Nd+3]	> 50	> 50	> 50	> 50	> 50	> 50	> 50	> 50000			> 50000	> 50	> 50	> 50000			> 50		> 50	
CCCCC[C@@H](C/C=C/CCC(=O)NC/C(=C/Cl)[C@H]1C(=O)C(C)(C)C(=O)[C@@H](C)[C@@]1(C)O)OC	35.5	39.3	37.1	31.9	38	32	48.5	18900	16.8	31.8	20100	17.1	17.3	21800	16	32.3	18.8		20.8	
